BindingDB's records for doi:10.1021/acs.jmedchem.6b01442 (Tsinghua University, 2017)
pIC50: −log10 of the molar value.

Assay: Inhibition of HBV capsid assembly infected in human HepG2(2.2.15) cells assessed as inhibition of intracellular viral DNA level after 8 days by agarose gel electrophoresis method

CC(=O)Nc1ccc(-c2cc(C)c(=O)n(Cc3ccc(Cl)cc3)n2)cc1
pIC50: 5.72
